Read-outs that look alike come from different tables or passages of the source.
Legend:
H-MEC-1 = assay: SRB colorimetric cell growth inhibition assay, H-MEC-1; format: cell-based; settings: Homo sapiens, HMEC-1, H-MEC-1; for GI50: GI=growth inhibition, read-out: GI50 H-MEC-1; for IC (TGI): total growth inhibition (cytostatic effect), read-out: TGI H-MEC-1
In short: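 Growth inhibition (GI), total growth inhibition (TGI, cytostatic) and lethal concentration (LC, cytotoxic) come from an SRB-based colorimetric measure of growth and viability. Data are triplicate-well means ± SD.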

A-549 = assay: SRB colorimetric cell growth inhibition assay, A-549; format: cell-based; settings: Homo sapiens; for GI50: GI=growth inhibition, read-out: GI50 A-549; for CC50: LC=cell killing (cytotoxic effect); for IC (TGI): TGI=total growth inhibition (cytostatic effect), read-out: TGI A-549
In short: (§1)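 Quantitation uses the sulforhodamine B reaction on cells exposed to sample for the whole assay period; results (mean ± SD, n = 3 wells) yield GI, TGI and LC.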

LNCaP = assay: SRB colorimetric cell growth inhibition assay, LNCaP; format: cell-based; settings: Homo sapiens, LNCaP; for GI50: GI=growth inhibition, read-out: GI50 LN-caP; for IC (TGI): total growth inhibition (cytostatic effect), read-out: TGI LN-caP
In short: as §1

DU-145 = assay: SRB colorimetric cell growth inhibition assay, DU-145; format: cell-based; settings: Homo sapiens; for GI50: GI=growth inhibition, read-out: GI50 DU-145; for IC (TGI): total growth inhibition (cytostatic effect), read-out: TGI DU-145
In short: as §1

LoVo-Dox = assay: SRB colorimetric cell growth inhibition assay, LoVo-Dox (MDR); format: cell-based
In short: as §1

IGROV-ET = assay: SRB colorimetric cell growth inhibition assay, IGROV-ET (ET-743 resistant); format: cell-based; settings: Homo sapiens; for GI50: GI=growth inhibition, read-out: GI50 IGROV-ET; for IC (TGI): total growth inhibition (cytostatic effect), read-out: TGI IGROV-ET
In short: as §1

PANC-1 = assay: SRB colorimetric cell growth inhibition assay, PANC-1; format: cell-based; settings: Homo sapiens; for CC50: LC=cell killing (cytotoxic effect); for IC (TGI): TGI=total growth inhibition (cytostatic effect), read-out: TGI PANC-1; for GI50: GI=growth inhibition, read-out: GI50 PANC-1
In short: as §1

human topoisomerase I = biological target: T1, human topoisomerase I (Homo sapiens, UniProt P11387); assay: Topoisomerase I DNA relaxation assay (supercoiled plasmid DNA); format: biochemical; settings: supercoiled plasmid DNA, each compound tested at 1 μM, agarose gel with ethidium bromide
T1 sequence (P11387 1-765): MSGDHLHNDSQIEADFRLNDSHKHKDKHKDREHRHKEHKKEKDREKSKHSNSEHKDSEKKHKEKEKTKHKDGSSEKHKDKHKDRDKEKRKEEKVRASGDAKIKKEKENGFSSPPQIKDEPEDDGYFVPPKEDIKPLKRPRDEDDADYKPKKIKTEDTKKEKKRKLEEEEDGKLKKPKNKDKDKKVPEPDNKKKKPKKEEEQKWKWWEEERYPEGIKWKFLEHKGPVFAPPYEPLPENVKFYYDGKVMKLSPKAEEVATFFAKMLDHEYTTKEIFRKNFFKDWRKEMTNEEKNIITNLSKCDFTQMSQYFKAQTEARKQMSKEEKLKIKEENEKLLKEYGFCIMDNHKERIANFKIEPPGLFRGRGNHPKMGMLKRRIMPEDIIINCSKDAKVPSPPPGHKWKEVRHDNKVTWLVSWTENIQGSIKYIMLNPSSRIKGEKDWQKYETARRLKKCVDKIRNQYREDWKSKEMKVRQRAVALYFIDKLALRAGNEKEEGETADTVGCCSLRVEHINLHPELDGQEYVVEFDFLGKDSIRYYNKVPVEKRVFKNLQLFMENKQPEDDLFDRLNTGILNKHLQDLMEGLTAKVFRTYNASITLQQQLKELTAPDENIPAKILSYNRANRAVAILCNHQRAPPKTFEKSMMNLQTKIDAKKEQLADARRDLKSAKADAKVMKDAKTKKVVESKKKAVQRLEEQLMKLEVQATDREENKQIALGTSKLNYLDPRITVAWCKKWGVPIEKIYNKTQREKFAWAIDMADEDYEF
In short: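 Test compounds (1 μM each) were present during topoisomerase I relaxation of supercoiled plasmid DNA. Relaxation was assessed on ethidium bromide-stained agarose gels.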

SK-BR-3 = assay: SRB colorimetric cell growth inhibition assay, SK-BR-3; format: cell-based; settings: Homo sapiens; for GI50: GI=growth inhibition, read-out: GI50 SK-BR-3; for IC (TGI): total growth inhibition (cytostatic effect), read-out: TGI SK-BR-3
In short: as §1

K-562 = assay: SRB colorimetric cell growth inhibition assay, K-562; format: cell-based; settings: Homo sapiens; for GI50: GI=growth inhibition, read-out: GI50 K-562; for CC50: LC=cell killing (cytotoxic effect); for IC (TGI): TGI=total growth inhibition (cytostatic effect), read-out: TGI K-562
In short: as §1

LoVo = assay: SRB colorimetric cell growth inhibition assay, LoVo; format: cell-based; settings: Homo sapiens; for CC50: LC=cell killing (cytotoxic effect); for GI50: GI=growth inhibition, read-out: GI50 LOVO; for IC (TGI): TGI=total growth inhibition (cytostatic effect), read-out: TGI LOVO
In short: as §1

IGROV = assay: SRB colorimetric cell growth inhibition assay, IGROV; format: cell-based
In short: as §1

SK-MEL-28 = assay: SRB colorimetric cell growth inhibition assay, SK-MEL-28; format: cell-based; settings: Homo sapiens; for GI50: GI=growth inhibition, read-out: GI50 MEL-28; for IC (TGI): total growth inhibition (cytostatic effect), read-out: TGI MEL-28
In short: as §1

HT-29 = assay: SRB colorimetric cell growth inhibition assay, HT-29; format: cell-based; settings: Homo sapiens; for CC50: LC=cell killing (cytotoxic effect); for GI50: GI=growth inhibition, read-out: GI50 HT-29; for IC (TGI): TGI=total growth inhibition (cytostatic effect), read-out: TGI HT-29
In short: as §1

[1] = Homo sapiens, LOVO-DOX; GI=growth inhibition; read-out: GI50 LOVO-DOX

SMILES: COc1cc(-c2c3c4cc(OC)c(OC(=O)[C@@H](NC(=O)OC(C)(C)C)C(C)C)cc4oc(=O)c3n3ccc4cc(OC(=O)[C@@H](NC(=O)OC(C)(C)C)C(C)C)c(OC)cc4c23)ccc1OC(=O)[C@@H](NC(=O)OC(C)(C)C)C(C)C [Compound 38]
- GI50 (H-MEC-1): 80.9 nM
- IC (TGI) (H-MEC-1): 0.911 µM
- GI50 (A-549; A549, A-549): 1340 nM
- CC50 (A-549; A549, A-549, read-out: LC50 A-549): 9.11 µM
- IC (TGI) (A-549; A549, A-549): 4.78 µM
- GI50 (LNCaP; LN-caP): 152 nM
- CC50 (LNCaP; LN-caP, LC=cell killing (cytotoxic effect), read-out: LC50 LN-caP): 3.9 µM
- IC (TGI) (LNCaP; LN-caP): 0.509 µM
- CC50 (DU-145; DU-145, DU-145, LC=cell killing (cytotoxic effect), read-out: LC50 DU-145): 9.11 µM
- GI50 (DU-145; DU-145): 51.2 nM
- IC (TGI) (DU-145; DU-145): 9.11 µM
- GI50 (LoVo-Dox; [1]): 9.11 µM
- CC50 (LoVo-Dox; Homo sapiens, LOVO-DOX; LC=cell killing (cytotoxic effect); read-out: LC50 LOVO-DOX): 9.11 µM
- IC (TGI) (LoVo-Dox; Homo sapiens; LOVO-DOX; TGI=total growth inhibition (cytostatic effect); read-out: TGI LOVO-DOX): 9.11 µM
- GI50 (IGROV-ET; IGROV-ET): 1290 nM
- CC50 (IGROV-ET; IGROV-ET, LC=cell killing (cytotoxic effect), read-out: LC50 IGROV-ET): 9.11 µM
- IC (TGI) (IGROV-ET; IGROV-ET): 4.51 µM
- CC50 (PANC-1; PANC-1, PANC-1, read-out: LC50 PANC-1): 9.11 µM
- IC (TGI) (PANC-1; PANC-1, PANC-1): 9.11 µM
- GI50 (PANC-1; PANC-1): 499 nM
- stimulation of DNA cleavage by topoisomerase I / inhibition of topoisomerase I (nicked DNA band) in DNA relaxation assay (human topoisomerase I): No effect
- CC50 (SK-BR-3; SK-BR-3, SK-BR-3, LC=cell killing (cytotoxic effect), read-out: LC50 SK-BR-3): 9.11 µM
- GI50 (SK-BR-3; SK-BR-3): 448 nM
- IC (TGI) (SK-BR-3; SK-BR-3): 4.08 µM
- GI50 (K-562; K562, K-562): 41.3 nM
- CC50 (K-562; K562, K-562, read-out: LC50 K-562): 9.11 µM
- IC (TGI) (K-562; K562, K-562): 1.15 µM
- CC50 (LoVo; LoVo, read-out: LC50 LOVO): 9.11 µM
- GI50 (LoVo; LOVO): 9.11 µM
- IC (TGI) (LoVo; LOVO): 9.11 µM
- CC50 (IGROV; Homo sapiens, IGROV; LC=cell killing (cytotoxic effect); read-out: LC50 IGROV): 9.11 µM
- GI50 (IGROV; Homo sapiens; IGROV; GI=growth inhibition; read-out: GI50 IGROV): 244 nM
- IC (TGI) (IGROV; Homo sapiens; IGROV; total growth inhibition (cytostatic effect); read-out: TGI IGROV): 1.07 µM
- GI50 (SK-MEL-28; SK-MEL-28, MEL-28): 165 nM
- CC50 (SK-MEL-28; SK-MEL-28, MEL-28, LC=cell killing (cytotoxic effect), read-out: LC50 MEL-28): 9.11 µM
- IC (TGI) (SK-MEL-28; SK-MEL-28, MEL-28): 0.52 µM
- CC50 (HT-29; HT-29, HT-29, read-out: LC50 HT-29): 9.11 µM
- GI50 (HT-29; HT-29): 32.4 nM
- IC (TGI) (HT-29; HT-29): 0.0911 µM

SMILES: COc1cc(-c2c3n(c4c(=O)oc5cc(OC(=O)[C@H](N)C(C)C)c(OC)cc5c24)CCc2cc(OC(=O)[C@H](N)C(C)C)c(OC)cc2-3)ccc1OC(=O)[C@H](N)C(C)C [Compound 32]
- GI50 (H-MEC-1): 276 nM
- IC (TGI) (H-MEC-1): 0.723 µM
- GI50 (A-549; A549, A-549): 1530 nM
- IC (TGI) (A-549; A549, A-549): 3.34 µM
- CC50 (A-549; A549, read-out: LC50 A-549, A-549): 7.33 µM
- GI50 (LNCaP; LN-caP): 429 nM
- IC (TGI) (LNCaP; LN-caP): 1.67 µM
- CC50 (LNCaP; read-out: LC50 LN-caP, LN-caP, cell killing (cytotoxic effect)): 5.08 µM
- GI50 (DU-145; DU-145, DU-145): 111 nM
- IC (TGI) (DU-145; DU-145, DU-145): 0.309 µM
- CC50 (DU-145; DU-145, read-out: LC50 DU-145, DU-145, cell killing (cytotoxic effect)): 0.857 µM
- GI50 (LoVo-Dox; [1]): 0.671 µM
- IC (TGI) (LoVo-Dox; Homo sapiens, LOVO-DOX; TGI=total growth inhibition (cytostatic effect); read-out: TGI LOVO-DOX): 2.42 µM
- CC50 (LoVo-Dox; Homo sapiens, read-out: LC50 LOVO-DOX, LOVO-DOX; LC=cell killing (cytotoxic effect)): 8.25 µM
- GI50 (IGROV-ET; IGROV-ET): 666 nM
- IC (TGI) (IGROV-ET; IGROV-ET): 3.01 µM
- CC50 (IGROV-ET; read-out: LC50 IGROV-ET, IGROV-ET, cell killing (cytotoxic effect)): 8.76 µM
- GI50 (PANC-1; PANC-1, PANC-1): 316 nM
- IC (TGI) (PANC-1; PANC-1, PANC-1): 1.38 µM
- CC50 (PANC-1; PANC-1, read-out: LC50 PANC-1, PANC-1): 8.76 µM
- stimulation of DNA cleavage by topoisomerase I / inhibition of topoisomerase I (nicked DNA band) in DNA relaxation assay (human topoisomerase I): No effect
- GI50 (SK-BR-3; SK-BR-3, SK-BR-3): 1300 nM
- IC (TGI) (SK-BR-3; SK-BR-3, SK-BR-3): 3.19 µM
- CC50 (SK-BR-3; SK-BR-3, read-out: LC50 SK-BR-3, SK-BR-3, cell killing (cytotoxic effect)): 7.82 µM
- GI50 (K-562; K562, K-562): 673 nM
- IC (TGI) (K-562; K562, K-562): 2.43 µM
- CC50 (K-562; K562, read-out: LC50 K-562, K-562): 8.31 µM
- CC50 (LoVo; LoVo, read-out: LC50 LOVO, LOVO): 6.31 µM
- GI50 (LoVo; LoVo): 0.392 µM
- IC (TGI) (LoVo; LoVo): 1.65 µM
- CC50 (IGROV; Homo sapiens, IGROV, read-out: LC50 IGROV, IGROV; cell killing (cytotoxic effect)): 6.12 µM
- GI50 (IGROV; Homo sapiens, IGROV; GI=growth inhibition; read-out: GI50 IGROV): 561 nM
- IC (TGI) (IGROV; Homo sapiens, IGROV; total growth inhibition (cytostatic effect); read-out: TGI IGROV): 2.06 µM
- GI50 (SK-MEL-28; SK-MEL-28, MEL-28): 1350 nM
- IC (TGI) (SK-MEL-28; SK-MEL-28, MEL-28): 2.87 µM
- CC50 (SK-MEL-28; SK-MEL-28, read-out: LC50 MEL-28, MEL-28, cell killing (cytotoxic effect)): 6.13 µM
- GI50 (HT-29; HT-29, HT-29): 2660 nM
- IC (TGI) (HT-29; HT-29, HT-29): 5.3 µM
- CC50 (HT-29; HT-29, read-out: LC50 HT-29, HT-29): 8.76 µM
